Measured values taken from patent US9580437B2, “Triazolopyrimidine compounds and uses thereof” (Novartis AG, priority 2014, dated 2017).

Key:
[1] = biological target: EED (1-441)-His protein (Homo sapiens (Human), UniProt O75530); assay: EED-H3K27Me3 peptide competition binding assay by AlphaScreen; conditions: read-out: (a) IC50 EED Alphascreen binding Qualified
Description: EED-H3K27Me3 peptide competition binding assay by AlphaScreen (α-screen)

[2] = biological target: wild type PRC2 (wtPRC2) complex (Homo sapiens (Human), UniProt O75530); assay: EED LC-MS assay; assay type: biochemical; conditions: read-out: (b) IC50 EED LC-MS Qualified
Method: A 6 μL solution of 3 μM of the peptide substrate H3K27Me0 (histone H3[21-44]-biotin) in reaction buffer was added to initiate each reaction. […] ELISA (H3K27 Methylation) Assay

wild type PRC2 (wtPRC2) complex, sequence (O75530 whole entry): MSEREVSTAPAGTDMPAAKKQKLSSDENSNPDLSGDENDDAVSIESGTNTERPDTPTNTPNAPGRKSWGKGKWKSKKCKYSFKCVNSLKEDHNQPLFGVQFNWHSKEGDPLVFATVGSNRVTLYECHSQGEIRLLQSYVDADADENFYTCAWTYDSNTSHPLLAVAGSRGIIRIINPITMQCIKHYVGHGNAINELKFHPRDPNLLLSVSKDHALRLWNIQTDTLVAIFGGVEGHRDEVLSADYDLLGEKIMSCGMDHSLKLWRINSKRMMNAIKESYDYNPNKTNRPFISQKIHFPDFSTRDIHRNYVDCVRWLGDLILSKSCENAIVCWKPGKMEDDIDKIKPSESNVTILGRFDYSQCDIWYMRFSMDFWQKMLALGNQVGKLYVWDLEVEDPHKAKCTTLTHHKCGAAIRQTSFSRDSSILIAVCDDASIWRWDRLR
wild type PRC2 (wtPRC2) complex, sequence (Q15910 whole entry partner): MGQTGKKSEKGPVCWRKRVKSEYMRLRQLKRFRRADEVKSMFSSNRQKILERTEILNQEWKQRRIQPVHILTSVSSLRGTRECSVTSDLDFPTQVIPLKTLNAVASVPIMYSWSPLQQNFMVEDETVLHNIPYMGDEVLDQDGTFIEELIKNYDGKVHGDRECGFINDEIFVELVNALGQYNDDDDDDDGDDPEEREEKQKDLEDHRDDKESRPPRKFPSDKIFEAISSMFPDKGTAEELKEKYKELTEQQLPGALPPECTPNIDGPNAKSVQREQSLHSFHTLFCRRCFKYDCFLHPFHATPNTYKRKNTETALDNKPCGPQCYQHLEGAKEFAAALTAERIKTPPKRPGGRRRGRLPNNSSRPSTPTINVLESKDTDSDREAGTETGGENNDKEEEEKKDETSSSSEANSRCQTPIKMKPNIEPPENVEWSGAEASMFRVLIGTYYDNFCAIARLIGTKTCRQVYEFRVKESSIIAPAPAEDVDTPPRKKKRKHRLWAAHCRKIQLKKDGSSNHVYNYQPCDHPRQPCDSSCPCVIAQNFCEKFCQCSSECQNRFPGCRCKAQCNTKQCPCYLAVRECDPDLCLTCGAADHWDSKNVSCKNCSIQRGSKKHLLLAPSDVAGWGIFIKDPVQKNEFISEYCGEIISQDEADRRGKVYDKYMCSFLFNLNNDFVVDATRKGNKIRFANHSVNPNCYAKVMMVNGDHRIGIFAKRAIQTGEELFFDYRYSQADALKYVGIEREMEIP
wild type PRC2 (wtPRC2) complex, sequence (Q15022 whole entry partner): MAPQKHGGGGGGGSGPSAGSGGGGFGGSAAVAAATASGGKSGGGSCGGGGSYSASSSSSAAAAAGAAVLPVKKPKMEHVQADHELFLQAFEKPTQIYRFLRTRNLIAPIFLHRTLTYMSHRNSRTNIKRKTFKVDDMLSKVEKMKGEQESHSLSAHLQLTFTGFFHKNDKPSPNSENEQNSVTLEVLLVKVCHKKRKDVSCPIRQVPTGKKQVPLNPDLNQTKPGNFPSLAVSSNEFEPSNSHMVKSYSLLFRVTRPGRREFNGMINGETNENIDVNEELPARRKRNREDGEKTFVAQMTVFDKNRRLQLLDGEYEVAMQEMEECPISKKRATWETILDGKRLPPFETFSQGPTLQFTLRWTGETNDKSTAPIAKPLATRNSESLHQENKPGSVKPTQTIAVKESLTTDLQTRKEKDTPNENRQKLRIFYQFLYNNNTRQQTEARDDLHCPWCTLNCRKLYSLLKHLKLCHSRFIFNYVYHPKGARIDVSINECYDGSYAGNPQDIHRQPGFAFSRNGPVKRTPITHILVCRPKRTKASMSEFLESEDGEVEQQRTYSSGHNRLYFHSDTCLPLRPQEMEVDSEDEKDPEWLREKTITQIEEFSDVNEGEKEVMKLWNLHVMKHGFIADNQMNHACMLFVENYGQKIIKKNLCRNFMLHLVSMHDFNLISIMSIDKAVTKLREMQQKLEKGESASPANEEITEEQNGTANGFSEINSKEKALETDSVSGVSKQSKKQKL
EED (1-441)-His protein, sequence (O75530 whole entry): as the sequence (O75530 whole entry) above

SMILES | IC50 [1] [nM] | IC50 [2] [nM]
Fc1ccc2c(c1CNc1ncc(-n3cccn3)c3nncn13)CCO2 [Example 237, N-((5-fluoro-2,3-dihydrobenzofuran-4-yl)methyl)-8-(1H-pyrazol-1-yl)-[1,2,4]triazolo[4,3-c]pyrimidin-5-amine] | 3.1 | 10
Cc1nn(C(C)C)cc1-c1cnc(NCc2cccc3c2CCO3)n2cnnc12 [Example 82, N-((2,3-dihydrobenzofuran-4-yl)methyl)-8-(1-isopropyl-3-methyl-1H-pyrazol-4-yl)-[1,2,4]triazolo[4,3-c]pyrimidin-5-amine] | 16.7 | 30.9
CN(C)Cc1ccc(-c2cnc(NCc3c(F)ccc4c3CCO4)n3cnnc23)cc1 [Example 23, 8-(4-((dimethylamino)methyl)phenyl)-N-((5-fluoro-2,3-dihydrobenzofuran-4-yl)methyl)-[1,2,4]triazolo[4,3-c]pyrimidin-5-amine] | 31.1 | 25.7
Cc1cc(-c2cnc(NCc3cccc4c3CCO4)n3cnnc23)cnc1N1CCN(C)CC1 [Example 36, N-((2,3-dihydrobenzofuran-4-yl)methyl)-8-(5-methyl-6-(4-methylpiperazin-1-yl)pyridin-3-yl)-[1,2,4]triazolo[4,3-c]pyrimidin-5-amine] | 18.5 | 22.4
Cc1nn(C[C@H](C)O)c(C)c1-c1cnc(NCc2c(F)ccc3c2CCO3)n2cnnc12 [Example 187, (2S)-1-(4-(5-(((5-fluoro-2,3-dihydrobenzofuran-4-yl)methyl)amino)-[1,2,4]triazolo[4,3-c]pyrimidin-8-yl)-3,5-dimethyl-1H-pyrazol-1-yl)propan-2-ol] | 8.2 | 12.5
Cc1nn(C)c(C)c1-c1cnc(NCc2c(F)ccc3c2CCO3)n2cnnc12 [Example 132, N-((5-fluoro-2,3-dihydrobenzofuran-4-yl)methyl)-8-(1,3,5-trimethyl-1H-pyrazol-4-yl)-[1,2,4]triazolo[4,3-c]pyrimidin-5-amine] | 6.2 | 10.2
Fc1ccncc1-c1cnc(NCc2cccc3c2CCO3)n2cnnc12 [Example 85, N-((2,3-dihydrobenzofuran-4-yl)methyl)-8-(4-fluoropyridin-3-yl)-[1,2,4]triazolo[4,3-c]pyrimidin-5-amine] | 8.3 | 26
O=C(c1ccc(-c2cnc(NCc3cccc4c3CCO4)n3cnnc23)cn1)N1CCOCC1 [Example 68, (5-(5-(((2,3-dihydrobenzofuran-4-yl)methyl)amino)-[1,2,4]triazolo[4,3-c]pyrimidin-8-yl)pyridin-2-yl)(morpholino)methanone] | 19.7 | 36.7
c1cc(CNc2ncc(-c3cnn(C4CC4)c3)c3nncn23)c2c(c1)OCC2 [Example 149, 8-(1-cyclopropyl-1H-pyrazol-4-yl)-N-((2,3-dihydrobenzofuran-4-yl)methyl)-[1,2,4]triazolo[4,3-c]pyrimidin-5-amine] | 16.9 | 33.7
CCn1nccc1-c1cnc(NCc2c(F)ccc3c2CCO3)n2cnnc12 [Example 143, 8-(1-ethyl-1H-pyrazol-5-yl)-N-((5-fluoro-2,3-dihydrobenzofuran-4-yl)methyl)-[1,2,4]triazolo[4,3-c]pyrimidin-5-amine] | 18.1 | 31.5
CN(C)C(=O)c1ccc(-c2cnc(NCc3cccc4c3CCO4)n3cnnc23)cc1 [Example 42, 4-(5-(((2,3-dihydrobenzofuran-4-yl)methyl)amino)-[1,2,4]triazolo[4,3-c]pyrimidin-8-yl)-N,N-dimethylbenzamide] | 52.5 | 86.1
Cc1nn(CCO)c(C)c1-c1cnc(NCc2cccc3c2CCO3)n2cnnc12 [Example 67, 2-(4-(5-(((2,3-dihydrobenzofuran-4-yl)methyl)amino)-[1,2,4]triazolo[4,3-c]pyrimidin-8-yl)-3,5-dimethyl-1H-pyrazol-1-yl)ethanol] | 30.9 | 90.2

The remaining compounds from weak to strong by IC50 [1], led by results:

IC50 [1] [nM] | IC50 [2] [nM] | SMILES
56.2 | 56.6 | O=S(=O)(NCCO)c1ccc(-c2cnc(NCc3cccc4c3CCO4)n3cnnc23)cc1 [Example 40, 4-(5-(((2,3-dihydrobenzofuran-4-yl)methyl)amino)-[1,2,4]triazolo[4,3-c]pyrimidin-8-yl)-N-(2-hydroxyethyl)benzenesulfonamide]
41.8 | 83.9 | O=C1CCCN1c1cncc(-c2cnc(NCc3cccc4c3CCO4)n3cnnc23)c1 [Example 87, 1-(5-(5-(((2,3-dihydrobenzofuran-4-yl)methyl)amino)-[1,2,4]triazolo[4,3-c]pyrimidin-8-yl)pyridin-3-yl)pyrrolidin-2-one]
37.5 | 49.4 | OCCn1cc(-c2cnc(NCc3cccc4c3CCO4)n3cnnc23)cn1 [Example 34, 2-(4-(5-(((2,3-dihydrobenzofuran-4-yl)methyl)amino)-[1,2,4]triazolo[4,3-c]pyrimidin-8-yl)-1H-pyrazol-1-yl)ethanol]
30.2 | 21.5 | Fc1ccccc1-c1cnc(NCc2cccc3c2CCO3)n2cnnc12 [Example 31, N-((2,3-dihydrobenzofuran-4-yl)methyl)-8-(2-fluorophenyl)-[1,2,4]triazolo[4,3-c]pyrimidin-5-amine]
23.5 | 29.4 | O=C1OCCN1c1ccc(-c2cnc(NCc3cccc4c3CCO4)n3cnnc23)cn1 [Example 117, 3-(5-(5-(((2,3-dihydrobenzofuran-4-yl)methyl)amino)-[1,2,4]triazolo[4,3-c]pyrimidin-8-yl)pyridin-2-yl)oxazolidin-2-one]
20.1 | 36.9 | FC(F)c1ccc(-c2cnc(NCc3cccc4c3CCO4)n3cnnc23)cn1 [Example 154, 8-(6-(difluoromethyl)pyridin-3-yl)-N-((2,3-dihydrobenzofuran-4-yl)methyl)-[1,2,4]triazolo[4,3-c]pyrimidin-5-amine]
13.8 | 50 | Cc1ncccc1-c1cnc(NCc2c(F)ccc3c2C(O)CO3)n2cnnc12 (stereo not drawn) [Example 242, 5-fluoro-4-(((8-(2-methylpyridin-3-yl)-[1,2,4]triazolo[4,3-c]pyrimidin-5-yl)amino)methyl)-2,3-dihydrobenzofuran-3-ol]
13.4 | 22.1 | N#Cc1ccccc1-c1cnc(NCc2c(F)ccc3c2CCO3)n2cnnc12 [Example 121, 2-(5-(((5-fluoro-2,3-dihydrobenzofuran-4-yl)methyl)amino)-[1,2,4]triazolo[4,3-c]pyrimidin-8-yl)benzonitrile]
10.8 | 24 | c1cncc(-c2cnc(NCc3cccc4c3CCO4)n3cnnc23)c1 [Example 16, N-((2,3-dihydrobenzofuran-4-yl)methyl)-8-(pyridin-3-yl)-[1,2,4]triazolo[4,3-c]pyrimidin-5-amine]
7.8 | 12.8 | CC(c1ccc(-c2cnc(NCc3cccc4c3CCO4)n3cnnc23)cc1)N1CCCC1 (stereo not drawn) [Example 14, N-((2,3-dihydrobenzofuran-4-yl)methyl)-8-(4-(1-(pyrrolidin-1-yl)ethyl)phenyl)-[1,2,4]triazolo[4,3-c]pyrimidin-5-amine]
7.3 | 8.2 | Fc1ccc2c(c1CNc1ncc(-c3cnccn3)c3nncn13)CCO2 [Example 205, N-((5-fluoro-2,3-dihydrobenzofuran-4-yl)methyl)-8-(pyrazin-2-yl)-[1,2,4]triazolo[4,3-c]pyrimidin-5-amine]
6 | 7.3 | CC(=O)NCc1ccc(-c2cnc(NCc3c(F)ccc4c3CCO4)n3cnnc23)cn1 [Example 171, N-((5-(5-(((5-fluoro-2,3-dihydrobenzofuran-4-yl)methyl)amino)-[1,2,4]triazolo[4,3-c]pyrimidin-8-yl)pyridin-2-yl)methyl)acetamide]
5.9 | 11.6 | Cc1nn(C)cc1-c1cnc(NCc2c(F)ccc3c2CCO3)n2cnnc12 [Example 195, 8-(1,3-dimethyl-1H-pyrazol-4-yl)-N-((5-fluoro-2,3-dihydrobenzofuran-4-yl)methyl)-[1,2,4]triazolo[4,3-c]pyrimidin-5-amine]
5.7 | 21.1 | Fc1ccc2c(c1CNc1ncc(-c3ccncc3Cl)c3nncn13)CCO2 [Example 162, 8-(3-chloropyridin-4-yl)-N-((5-fluoro-2,3-dihydrobenzofuran-4-yl)methyl)-[1,2,4]triazolo[4,3-c]pyrimidin-5-amine]
4 | 17.3 | Cc1nc(N)ccc1-c1cnc(NCc2c(F)ccc3c2CCO3)n2cnnc12 [Example 156, 8-(6-amino-2-methylpyridin-3-yl)-N-((5-fluoro-2,3-dihydrobenzofuran-4-yl)methyl)-[1,2,4]triazolo[4,3-c]pyrimidin-5-amine]
3.6 | 9.8 | COc1cc(F)c(-c2cnc(NCc3c(F)ccc4c3CCO4)n3cnnc23)cn1 [Example 161, N-((5-fluoro-2,3-dihydrobenzofuran-4-yl)methyl)-8-(4-fluoro-6-methoxypyridin-3-yl)-[1,2,4]triazolo[4,3-c]pyrimidin-5-amine]
3.6 | 8.2 | CCOc1cc(C)c(-c2cnc(NCc3c(F)ccc4c3CCO4)n3cnnc23)cn1 [Example 196, 8-(6-ethoxy-4-methylpyridin-3-yl)-N-((5-fluoro-2,3-dihydrobenzofuran-4-yl)methyl)-[1,2,4]triazolo[4,3-c]pyrimidin-5-amine]
2.3 | 3.8 | Cc1c(-c2cnc(NCc3c(F)ccc4c3CCO4)n3cnnc23)cnn1C(C)C [Example 188, N-((5-fluoro-2,3-dihydrobenzofuran-4-yl)methyl)-8-(1-isopropyl-5-methyl-1H-pyrazol-4-yl)-[1,2,4]triazolo[4,3-c]pyrimidin-5-amine]
